The values that follow come from patent publication US20240083857A1, “2-Methyl-Quinazolines” (Bayer Pharma Aktiengesellschaft, priority 2017, published 2024).

Read-outs that look alike come from different tables or passages of the source.

Experiment [1] deals with human SOS1 (loading of human K-Ras^G12C-GDP with fluorescent GTP-analog) (Homo sapiens, UniProt Q07889). Description: Biochemical assay 3: K-Ras^G12C activation assay by hSOS1 (HTRF). The conditions noted are these: no GTP; for IC50: read-out: Assay 3 (KRAS-Activation by SOS no GTP) activity expressed as IC50; for inhibition at 20 µM: read-out: Assay 3 (KRAS-Activation by SOS no GTP) activity expressed as % inhibition at 20 μM. (In general: In TR-FRET formats the signal depends on donor and acceptor labels being close together.)

Experiment [2] addresses Epidermal Growth Factor Receptor (EGFR) (Homo sapiens (Human), UniProt P00533). Description: EGFR kinase assay (TR-FRET). In kind it is biochemical. The conditions noted are these: read-out: EGFR kinase inhibition IC50. In short, it runs like this:
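Read-out is the 665/620 nm HTRF ratio, from a Tb-cryptate anti-phosphotyrosine antibody and streptavidin-XL665 bound to phosphorylated biotin-peptide substrate. The enzyme, A431-derived EGFR (~3 U/ml), was given 15 min compound pre-binding at 22° C in Hepes pH 7.0 with Mg2+/Mn2+ before reaction.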

Broadly, the IC50 is the point on the concentration scale where inhibition reaches its midpoint. Usually inhibition stands for the drop in the measured response relative to a control, in per cent.

Epidermal Growth Factor Receptor (EGFR), sequence (P00533 25-1210): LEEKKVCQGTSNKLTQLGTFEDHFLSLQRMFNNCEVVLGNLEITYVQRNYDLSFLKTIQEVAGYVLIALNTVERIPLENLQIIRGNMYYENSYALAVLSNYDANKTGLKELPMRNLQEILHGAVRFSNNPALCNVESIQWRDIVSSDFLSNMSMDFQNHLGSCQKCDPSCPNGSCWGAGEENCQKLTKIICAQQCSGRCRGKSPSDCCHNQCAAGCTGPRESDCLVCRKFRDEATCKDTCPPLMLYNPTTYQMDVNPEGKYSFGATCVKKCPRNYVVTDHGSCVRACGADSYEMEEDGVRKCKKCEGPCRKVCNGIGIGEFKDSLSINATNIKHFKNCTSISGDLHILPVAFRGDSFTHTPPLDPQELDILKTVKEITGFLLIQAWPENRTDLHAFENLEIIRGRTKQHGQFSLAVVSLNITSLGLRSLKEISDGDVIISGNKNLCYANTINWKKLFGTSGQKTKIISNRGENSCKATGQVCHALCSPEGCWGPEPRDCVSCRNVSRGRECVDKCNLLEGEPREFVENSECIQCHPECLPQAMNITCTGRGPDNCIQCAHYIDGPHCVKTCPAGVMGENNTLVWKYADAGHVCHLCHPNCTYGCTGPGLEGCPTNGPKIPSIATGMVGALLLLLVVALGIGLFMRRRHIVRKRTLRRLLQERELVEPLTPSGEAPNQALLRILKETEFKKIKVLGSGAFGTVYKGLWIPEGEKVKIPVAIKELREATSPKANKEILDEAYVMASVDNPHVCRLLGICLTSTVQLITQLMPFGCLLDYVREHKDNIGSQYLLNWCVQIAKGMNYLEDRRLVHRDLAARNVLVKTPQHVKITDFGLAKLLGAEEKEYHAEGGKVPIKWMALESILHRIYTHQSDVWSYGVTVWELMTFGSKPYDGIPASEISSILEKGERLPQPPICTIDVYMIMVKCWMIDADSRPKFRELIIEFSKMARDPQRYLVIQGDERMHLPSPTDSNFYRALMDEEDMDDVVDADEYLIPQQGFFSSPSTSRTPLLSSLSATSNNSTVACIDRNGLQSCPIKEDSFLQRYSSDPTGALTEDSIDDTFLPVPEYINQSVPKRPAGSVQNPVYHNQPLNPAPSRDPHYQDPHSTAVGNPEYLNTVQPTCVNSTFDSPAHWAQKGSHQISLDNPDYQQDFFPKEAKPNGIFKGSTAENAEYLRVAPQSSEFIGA

As to `COc1cc2nc(C)nc(NC(C)c3cccc(-c4nn[nH]n4)c3)c2cc1OC` (centres unmarked) [Example 216, 6,7-dimethoxy-2-methyl-N-{1-[3-(2H-tetrazol-5-yl)phenyl]ethyl}quinazolin-4-amine], the IC50 in experiment [1] was 16.1 µM; in experiment [2] (values given in μM) it was above 20 µM.

As for `COc1cc2nc(C)nc(NC(C)c3ccc(-c4ccccc4CN4CCC(C(N)=O)CC4)s3)c2cc1OC` (centres unmarked) [Example 179, 1-[2-(5-{1-[(6,7-dimethoxy-2-methylquinazolin-4-yl)amino]ethyl}thiophen-2-yl)benzyl]piperidine-4-carboxamide], the figures for the IC50 in experiment [1] and in experiment [2] (values given in μM) were 0.214 µM and above 20 µM, respectively.

Regarding `COc1cc2nc(C)nc(N[C@H](C)c3ccc(S(C)(=O)=O)cc3)c2cc1OC` [Example 188, 6,7-dimethoxy-2-methyl-N-{(1R)-1-[4-(methylsulfonyl)phenyl]ethyl}quinazolin-4-amine], in experiment [1], the inhibition at 20 µM amounted to 38%. Also, the IC50 in experiment [2] (values given in μM) is above 20 µM.

Take `COc1cc2nc(C)nc(NC(C)c3ccc(-c4cc[nH]n4)s3)c2cc1OC` (centres unmarked) [Example 222, 6,7-dimethoxy-2-methyl-N-{1-[5-(1H-pyrazol-3-yl)thiophen-2-yl]ethyl}quinazolin-4-amine]: the IC50 was 13.5 µM in experiment [1] and above 20 µM in experiment [2] (values given in μM).

For `COc1cc2nc(C)nc(NC(C)c3csc(-c4ccc(F)cc4CN)c3)c2cc1OC` (centres unmarked) [Example 255, N-[1-{5-[2-(aminomethyl)-4-fluorophenyl]thiophen-3-yl}ethyl]-6,7-dimethoxy-2-methylquinazolin-4-amine], the IC50 in experiment [1] is 0.39 µM; in experiment [2] (values given in μM), above 20 µM.

With `COc1cc2nc(C)nc(N[C@H](C)c3ccc(-c4ccccc4)cc3)c2cc1OC` [Example 196, N-[(1R)-1-(biphenyl-4-yl)ethyl]-6,7-dimethoxy-2-methylquinazolin-4-amine], the values for the IC50 in experiment [1] and in experiment [2] (values given in μM) were 6.1 µM and above 20 µM, respectively.

Take `COc1cc2nc(C)nc(N[C@H](C)c3cccc(-c4cnn(CCN5CCCC5)c4)c3)c2cc1OC` [Example 257, 6,7-dimethoxy-2-methyl-N-[(1R)-1-(3-{1-[2-(pyrrolidin-1-yl)ethyl]-1H-pyrazol-4-yl}phenyl)ethyl]quinazolin-4-amine]: the IC50 in experiment [1] was 0.852 µM; in experiment [2] (values given in μM), above 20 µM.

Take `COc1cc2nc(C)nc(NC(C)c3ccc(-c4cnn(C5CCCC5)c4)s3)c2cc1OC` (centres unmarked) [Example 221, N-{1-[5-(1-cyclopentyl-1H-pyrazol-4-yl)thiophen-2-yl]ethyl}-6,7-dimethoxy-2-methylquinazolin-4-amine]: the IC50 in experiment [1] was 4.81 µM; in experiment [2] (values given in μM), above 20 µM.

Take `COc1cc2nc(C)nc(NC(C)c3ccc(-c4ccccc4CN4CCCC4)s3)c2cc1OC` (centres unmarked) [Example 184, 6,7-dimethoxy-2-methyl-N-[1-{5-[2-(pyrrolidin-1-ylmethyl)phenyl]thiophen-2-yl}ethyl]quinazolin-4-amine]: the IC50 was 0.122 µM in experiment [1] and above 20 µM in experiment [2] (values given in μM).

For `COc1cc2nc(C)nc(NC(C)c3cc(F)cc4[nH]ncc34)c2cc1OC` (centres unmarked) [Example 6, N-[1-(6-fluoro-1H-indazol-4-yl)ethyl]-6,7-dimethoxy-2-methylquinazolin-4-amine], the values for the IC50 in experiment [1] and in experiment [2] (values given in μM) were 4.98 µM and above 20 µM, respectively.

Turning to `COc1cc2nc(C)nc(NC(C)c3csc(-c4cnn(CCN5CCCC5)c4)c3)c2cc1OC` (centres unmarked) [Example 254, 6,7-dimethoxy-2-methyl-N-[1-(5-{1-[2-(pyrrolidin-1-yl)ethyl]-1H-pyrazol-4-yl}thiophen-3-yl)ethyl]quinazolin-4-amine], the IC50 is 3.45 µM in experiment [1] and above 20 µM in experiment [2] (values given in μM).

Regarding `COc1cc2nc(C)nc(NC(C)c3cc4cccc(O)c4o3)c2cc1OC` (centres unmarked) [Example 28, 2-{-[(6,7-dimethoxy-2-methyquinazolin-4-yl)amino]ethyl}-1-benzofuran-7-ol], in experiment [1], the inhibition at 20 µM turned out to be 46%. Also, the IC50 in experiment [2] (values given in μM) is above 20 µM.

As to `COc1cc2nc(C)nc(N[C@H](C)c3cccc(C)c3)c2cc1OC` [Example 190, 6,7-dimethoxy-2-methyl-N-[(1R)-1-(3-methylphenyl)ethyl]quinazolin-4-amine], the results for the concentration for half-maximal inhibition (IC50) in experiment [1] and in experiment [2] (values given in μM) were 0.553 µM and above 20 µM, respectively.

`COc1cc2nc(C)nc(NC(C)c3ccc(-c4ccccc4CN)s3)c2cc1OC` (centres unmarked) [Example 252, N-[1-{5-[2-(aminomethyl)phenyl]thiophen-2-yl}ethyl]-6,7-dimethoxy-2-methylquinazolin-4-amine]: the IC50 was 0.103 µM in experiment [1] and above 20 µM in experiment [2] (values given in μM).

Consider `COc1cc2nc(C)nc(NC(C)c3ccc4nsnc4c3)c2cc1OC` (centres unmarked) [Example 229, N-[1-(2,1,3-benzothiadiazol-5-yl)ethyl]-6,7-dimethoxy-2-methylquinazolin-4-amine], for which the inhibition at 20 µM in experiment [1] came to 29%. The IC50 in experiment [2] (values given in μM) was above 20 µM.

Regarding `COc1cc2nc(C)nc(N[C@H](C)c3cccc(C#N)c3)c2cc1OC` [Example 194, 3-{(1R)-1-[(6,7-dimethoxy-2-methylquinazolin-4-yl)amino]ethyl}benzonitrile], the values for the IC50 in experiment [1] and in experiment [2] (values given in μM) were 2.43 µM and above 20 µM, respectively.

In the case of `COc1cc2nc(C)nc(N[C@H](C)c3ccc(Br)cc3)c2cc1OC` [Example 187, N-[(1R)-1-(4-bromophenyl)ethyl]-6,7-dimethoxy-2-methylquinazolin-4-amine], the IC50 in experiment [1] was 1.26 µM; in experiment [2] (values given in μM), above 20 µM.

Consider `COc1cc2nc(C)nc(NC(C)c3cccc4nn(C)cc34)c2cc1OC` (centres unmarked) [Example 9, 6,7-dimethoxy-2-methyl-N-[1-(2-methyl-2H-indazol-4-yl)ethyl]quinazolin-4-amine], for which the IC50 in experiment [1] is 5.96 µM; in experiment [2] (values given in μM) it was above 20 µM.

Consider `COc1cc2nc(C)nc(NC(C)c3ccc(-c4ccccc4C#N)s3)c2cc1OC` (centres unmarked) [Example 245, 2-(5-{1-[(6,7-dimethoxy-2-methylquinazolin-4-yl)amino]ethyl}thiophen-2-yl)benzonitrile], for which the values for the IC50 in experiment [1] and in experiment [2] (values given in μM) were 0.918 µM and above 20 µM, respectively.

On to `COc1cc2nc(C)nc(N[C@H](C)c3ccc(C(N)=O)cc3)c2cc1OC` [Example 192, 4-{(1R)-1-[(6,7-dimethoxy-2-methylquinazolin-4-yl)amino]ethyl}benzamide], for which the IC50 is 14.2 µM in experiment [1] and above 20 µM in experiment [2] (values given in μM).

As for `COc1cc2nc(C)nc(N[C@H](C)c3cccc(-c4ccccc4)c3)c2cc1OC` [Example 193, N-[(1R)-1-(biphenyl-3-yl)ethyl]-6,7-dimethoxy-2-methylquinazolin-4-amine], the figures for the IC50 in experiment [1] and in experiment [2] (values given in μM) were 0.82 µM and above 20 µM, respectively.

Regarding `COc1cc2nc(C)nc(NC(C)c3cccc(Oc4ccccc4)c3)c2cc1OC` (single isomer, unassigned; enantiomer 1) [Example 228, 6,7-dimethoxy-2-methyl-N-[1-(3-phenoxyphenyl)ethyl]quinazolin-4-amine, Enantiomer 1], the IC50 in experiment [1] turned out to be 1.43 µM; in experiment [2] (unit inferred) it was 0.341 µM.

For the compound `COc1cc2nc(C)nc(NC(C)c3ccc(-c4cccc(C(N)=O)c4)s3)c2cc1OC` (centres unmarked) [Example 241, 3-(5-{1-[(6,7-dimethoxy-2-methylquinazolin-4-yl)amino]ethyl}thiophen-2-yl)benzamide], the IC50 in experiment [1] was 1.31 µM; in experiment [2] (values given in μM), above 20 µM.

For the compound `COc1cc2nc(C)nc(N[C@H](C)c3cccc(C4=CCN(C)CC4)c3)c2cc1OC` [Example 202, 6,7-dimethoxy-2-methyl-N-{(1R)-1-[3-(1-methyl-1,2,3,6-tetrahydropyridin-4-yl)phenyl]ethyl}quinazolin-4-amine], the half-inhibitory concentration (IC50) is 5.32 µM in experiment [1] and above 20 µM in experiment [2] (values given in μM).

`COc1cc2nc(C)nc(N[C@H](C)c3cccc(C4CC4)c3)c2cc1OC` [Example 204, N-[(1R)-1-(3-cyclopropylphenyl)ethyl]-6,7-dimethoxy-2-methylquinazolin-4-amine]: the results for the IC50 in experiment [1] and in experiment [2] (values given in μM) were 0.64 µM and above 20 µM, respectively.

Turning to `COc1cc2nc(C)nc(NC(C)c3ccc(-c4cnn(CC(N)=O)c4)s3)c2cc1OC` (centres unmarked) [Example 249, 2-[4-(5-{1-[(6,7-dimethoxy-2-methylquinazolin-4-yl)amino]ethyl}thiophen-2-yl)-1H-pyrazol-1-yl]acetamide], the IC50 was 8.79 µM in experiment [1] and above 20 µM in experiment [2] (values given in μM).

`COc1cc2nc(C)nc(NC(C)c3ccc(-c4ccccc4CN4CCC(F)(F)C4)s3)c2cc1OC` (centres unmarked) [Example 223, N-[1-(5-{2-[(3,3-difluoropyrrolidin-1-yl)methyl]phenyl}thiophen-2-yl)ethyl]-6,7-dimethoxy-2-methylquinazolin-4-amine]: the IC50 in experiment [1] was 7.18 µM; in experiment [2] (values given in μM) it was above 20 µM.

As to `COC(=O)c1cc2c(C(C)Nc3nc(C)nc4cc(OC)c(OC)cc34)cccc2s1` (centres unmarked) [Example 3, methyl 4-{1-[(6,7-dimethoxy-2-methylquinazolin-4-yl)amino]ethyl}-1-benzothiophene-2-carboxylate], the IC50 in experiment [1] is 0.231 µM; in experiment [2] (values given in μM) it was above 20 µM.

Consider `COc1cc2nc(C)nc(NC(C)c3ccc(-c4ccc(F)c5ccccc45)s3)c2cc1OC` (centres unmarked) [Example 233, N-{1-[5-(4-fluoronaphthalen-1-yl)thiophen-2-yl]ethyl}-6,7-dimethoxy-2-methylquinazolin-4-amine], for which the IC50 is 16.1 µM in experiment [1] and above 20 µM in experiment [2] (values given in μM).

Consider `COc1cc2nc(C)nc(NC(C)c3ccc(-c4ccccc4N)s3)c2cc1OC` (centres unmarked) [Example 243, N-{1-[5-(2-aminophenyl)thiophen-2-yl]ethyl}-6,7-dimethoxy-2-methylquinazolin-4-amine], for which the values for the IC50 in experiment [1] and in experiment [2] (values given in μM) were 0.418 µM and above 20 µM, respectively.

Take `COc1cc2nc(C)nc(N[C@H](C)c3ccc(C4CC4)cc3)c2cc1OC` [Example 197, N-[(1R)-1-(4-cyclopropylphenyl)ethyl]-6,7-dimethoxy-2-methylquinazolin-4-amine]: the IC50 is 0.638 µM in experiment [1] and above 20 µM in experiment [2] (values given in μM).
